Earlier results, collected in patent publication US20240384361A1, “LONG-TERM SURROGATE VIRUS ASSAYS AND METHODS” (priority 2021, published 2024).

Legend:
ASFV [1] = tested on: ASFV
ASFV [2] = tested on: ASFV; remark: listed apart in the source

Row | Structure (SMILES) | ASFV infectivity in feed matrices (ASFV [1]) | virus inactivation on wood surfaces (ASFV [2])
1 | CCCCCCCCCCCC(=O)OCC(O)CO (centres unmarked) [glycerol monolaurate] | reduce ASFV infectivity | –
2 | O=C(O)CC(O)(CC(=O)O)C(=O)O [citric acid] | – | completely inactivated
